Measurements from PMC5566891, “Eukaryotic transporters for hydroxyderivatives of benzoic acid” (Scientific Reports, 2017).

Biological target: T1, Hbt2 (Hbt2p) (Lodderomyces parapsilosis, UniProt G8BG57)
T1 construct: native untagged full-length transporter in wild-type cells; assigned by knockout of HBT2
Test: […]-substrate uptake, wild-type versus hbt2 knockout cells
Assay type: cell-based
Settings: 50 µM, 50 mM Tris-HCl pH 7.5, 28 °C, labelled compound

T1 sequence (G8BG57 entry or part of it): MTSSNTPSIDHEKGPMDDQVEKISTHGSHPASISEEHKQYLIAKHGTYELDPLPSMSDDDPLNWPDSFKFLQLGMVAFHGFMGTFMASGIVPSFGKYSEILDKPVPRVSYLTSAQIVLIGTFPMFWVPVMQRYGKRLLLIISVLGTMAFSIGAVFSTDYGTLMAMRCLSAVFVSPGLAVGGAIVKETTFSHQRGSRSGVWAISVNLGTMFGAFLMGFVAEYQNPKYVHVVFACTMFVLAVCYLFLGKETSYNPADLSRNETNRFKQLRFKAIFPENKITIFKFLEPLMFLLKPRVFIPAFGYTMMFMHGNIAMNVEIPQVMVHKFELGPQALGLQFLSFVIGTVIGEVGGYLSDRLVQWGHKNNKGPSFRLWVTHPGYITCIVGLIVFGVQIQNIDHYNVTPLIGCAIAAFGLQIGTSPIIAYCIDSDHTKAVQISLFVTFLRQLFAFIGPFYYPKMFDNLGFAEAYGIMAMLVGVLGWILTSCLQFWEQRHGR

Compound | 14C-substrate uptake, wild-type versus hbt2 knockout cells (cells grown on 4-hydroxybenzoate or hydroquinone) | 14C-substrate uptake, wild-type versus hbt2 knockout cells (cells grown on hydroquinone)
O=C(O)c1ccc(O)cc1 [4-hydroxybenzoate] | uptake of both substrates is impaired in the ∆hbt2/∆hbt2 mutant | –
O=C(O)c1ccc(O)c(O)c1 [protocatechuate] | – | uptake of both substrates is impaired in the ∆hbt2/∆hbt2 mutant
